# Results taken from patent US9096565B2, “Inhibitors of histone deacetylase” (MethylGene Inc., priority 2007, dated 2015).
# Target: one or more of HDAC-4, HDAC-5, HDAC-6, HDAC-7, HDAC-8, HDAC-9, HDAC-10 and HDAC-11
# Assay: Inhibition of histone deacetylase enzymatic activity (summary statement over isoforms)
# Format: biochemical
# Conditions: Table 3, selected examples; HDAC isoform not given
# Outline: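 HDAC enzyme mix with compound was preincubated 5 min at room temperature. Reaction was started at 37 °C with Boc-Lys(trifluoroacetyl)-AMC substrate and run 20-30 min. It was stopped with trypsin (1 mg/mL) plus a known HDAC inhibitor to release the fluorogenic AMC.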
row,Compound,IC50 [nM]
1,"O=C(NO)C(Sc1nc(-c2ccccc2)c(-c2ccccc2)[nH]1)c1ccccc1 (stereo not shown) [Compound 1-42, 2-(4,5-diphenyl-1H-imidazol-2-ylthio)-N-hydroxy-2-phenylacetamide]",1000 to 15000
2,"O=C(NO)C(c1ccccc1)c1ccc(N2CCN(c3ccccc3)CC2)cc1 (stereo not shown) [Compound 5-26, N-hydroxy-2-phenyl-2-(4-(4-phenylpiperazin-1-yl)phenyl)acetamide]",< 1000
3,"O=C(NO)C(c1ccccc1)c1cccc(NCc2ccccc2)c1 (stereo not shown) [Compound 2-79, 2-(3-(benzylamino)phenyl)-N-hydroxy-2-phenylacetamide]",1000 to 15000
4,"O=C(NO)C(c1ccccc1)N1CCC(Cc2ccccc2)CC1 (stereo not shown) [Compound 1-9, 2-(4-benzylpiperidin-1-yl)-N-hydroxy-2-phenylacetamide]",< 1000
5,"O=C(NO)C(c1ccccc1)N1CCN(c2ccccc2O)CC1 (stereo not shown) [Compound 5-103, N-hydroxy-2-(4-(2-hydroxyphenyl)piperazin-1-yl)-2-phenylacetamide]",1000 to 15000
6,"CC(C(=O)NO)(c1ccccc1)c1ccccc1 [Compound 1-14, N-hydroxy-2,2-diphenylpropanamide]",< 1000
7,"CC(C)CCNc1ccc(C(C(=O)NO)c2ccccc2)cc1 (stereo not shown) [Compound 2-77, N-hydroxy-2-(4-(isopentylamino)phenyl)-2-phenylacetamide]",< 1000
8,"Cc1occc1SC(C(=O)NO)c1ccccc1 (stereo not shown) [Compound 2-46, N-hydroxy-2-(2-methylfuran-3-ylthio)-2-phenylacetamide]",1000 to 15000
9,"CC(C)N1CCN(c2ccc(C(C(=O)NO)c3ccccc3)cc2)CC1 (stereo not shown) [Compound 5-93, N-hydroxy-2-(4-(4-isopropylpiperazin-1-yl)phenyl)-2-phenylacetamide]",< 1000
10,"CC(=O)Nc1cccc(C(C(=O)NO)c2ccccc2)c1 (stereo not shown) [Compound 2-52, 2-(3-acetamidophenyl)-N-hydroxy-2-phenylacetamide]",1000 to 15000
11,"O=C(NO)C(c1ccccc1)c1nnc(-c2ccc(C(F)(F)F)cc2)s1 (stereo not shown) [Compound 5-37, N-hydroxy-2-phenyl-2-(5-(4-(trifluoromethyl)phenyl)-1,3,4-thiadiazol-2-yl)acetamide]",< 1000
12,"O=C(NO)C(c1ccccc1)c1ccc(O)cc1 (stereo not shown) [Compound 5-36, N-hydroxy-2-(4-hydroxyphenyl)-2-phenylacetamide]",< 1000
13,"CC(=O)N1CCN(c2ccc(C(C(=O)NO)c3ccccc3)cc2)CC1 (stereo not shown) [Compound 3-82, 2-(4-(4-acetylpiperazin-1-yl)phenyl)-N-hydroxy-2-phenylacetamide]",< 1000
14,"COc1ccc(-c2ccc(C(C(=O)NO)c3ccccc3)cc2)cc1OC (stereo not shown) [Compound 2-114, 2-(3′,4′-dimethoxybiphenyl-4-yl)-N-hydroxy-2-phenylacetamide]",< 1000
15,"O=C(NO)C(c1ccccc1)c1cccnc1 (stereo not shown) [Compound 5-15, N-hydroxy-2-phenyl-2-(pyridin-3-yl)acetamide]",< 1000
16,O=C(NO)C(c1ccccc1)c1ccc(CCCN2CCS(=O)(=O)CC2)cc1 (stereo not shown) [Compound 5-95],< 1000
17,"CN(C)c1ccc(-c2ccc(C(C(=O)NO)c3ccccc3)cc2)cc1 (stereo not shown) [Compound 5-21, 2-(4′-(dimethylamino)biphenyl-4-yl)-N-hydroxy-2-phenylacetamide]",< 1000
18,"O=C(NO)C(c1cccs1)c1cccs1 [Compound 1-23, N-hydroxy-2,2-di(thiophen-2-yl)acetamide]",1000 to 15000
19,"O=C(NO)C(c1ccccc1)N1CCN(S(=O)(=O)c2ccccc2)CC1 (stereo not shown) [Compound 5-8, N-hydroxy-2-phenyl-2-(4-(phenylsulfonyl)piperazin-1-yl)acetamide]",< 1000
20,"CC(C)c1ccc(SC(C(=O)NO)c2ccccc2)cc1 (stereo not shown) [Compound 2-21, N-hydroxy-2-(4-isopropylphenylthio)-2-phenylacetamide]",1000 to 15000
21,"O=C(NO)C(c1ccccc1)c1ccc(OCc2ccccc2)cc1 (stereo not shown) [Compound 5-33, 2-(4-(benzyloxy)phenyl)-N-hydroxy-2-phenylacetamide]",< 1000
22,"O=C(NO)C(c1ccccc1)c1ccc(-c2ccccc2)cc1 (stereo not shown) [Compound 1-32, 2-(biphenyl-4-yl)-N-hydroxy-2-phenylacetamide]",< 1000
23,"CSc1ccc(OC(C(=O)NO)c2ccccc2)cc1 (stereo not shown) [Compound 7-18, N-hydroxy-2-(4-(methylthio)phenoxy)-2-phenylacetamide]",1000 to 15000
24,"O=C(NO)C(c1ccccc1)c1cccc(OCc2ccc(F)cc2)c1 (stereo not shown) [Compound 2-8, 2-(3-(4-fluorobenzyloxy)phenyl)-N-hydroxy-2-phenylacetamide]",< 1000
25,"O=C(NO)C(c1ccccc1)c1ccc(N2CCN(C/C=C/c3ccccc3)CC2)cc1 (stereo not shown) [Compound 5-85, (E)-2-(4-(4-cinnamylpiperazin-1-yl)phenyl)-N-hydroxy-2-phenylacetamide]",< 1000
26,"O=C(NO)C(c1ccccc1)c1ccc(OCCOc2ccc(F)cc2)cc1 (stereo not shown) [Compound 3-69, 2-(4-(2-(4-fluorophenoxy)ethoxy)phenyl)-N-hydroxy-2-phenylacetamide]",< 1000

row,Compound,IC50 [nM]
1,"O=C(NO)C(c1ccccc1)c1cccc(-c2ccc3c(c2)CCO3)c1 (stereo not shown) [Compound 2-104, 2-(3-(2,3-dihydrobenzofuran-5-yl)phenyl)-N-hydroxy-2-phenylacetamide]",< 1000
2,"Cn1cc(C2CCN(C(C(=O)NO)c3ccccc3)CC2)c2ccccc21 (stereo not shown) [Compound 6-45, N-hydroxy-2-(4-(1-methyl-1H-indol-3-yl)piperidin-1-yl)-2-phenylacetamide]",< 1000
3,"CN1CCCC1CCOc1cccc(C(C(=O)NO)c2ccccc2)c1 (stereo not shown) [Compound 3-20, N-hydroxy-2-(3-(2-(1-methylpyrrolidin-2-yl)ethoxy)phenyl)-2-phenylacetamide]",< 1000
4,"O=C(CN(Cc1ccccc1)S(=O)(=O)c1ccccc1)NO [Compound 1-5, 2-(N-benzylphenylsulfonamido)-N-hydroxyacetamide]",1000 to 15000
5,"Cc1ccc(OC(C(=O)NO)c2ccccc2)cc1 (stereo not shown) [Compound 2-15, N-hydroxy-2-phenyl-2-(p-tolyloxy)acetamide]",1000 to 15000
6,"O=C(NO)C1(c2ccc(F)cc2)CCCC1 [Compound 5-120, 1-(4-fluorophenyl)-N-hydroxycyclopentanecarboxamide]",1000 to 15000
7,"CCCc1ccc(C(C(=O)NO)c2ccccc2)cc1 (stereo not shown) [Compound 5-102, N-hydroxy-2-phenyl-2-(4-propylphenyl)acetamide]",< 1000
8,"COCCOc1cccc(C(C(=O)NO)c2ccccc2)c1 (stereo not shown) [Compound 3-27, N-hydroxy-2-(3-(2-methoxyethoxy)phenyl)-2-phenylacetamide]",1000 to 15000
9,"CN1CCC(Oc2ccc(C(C(=O)NO)c3ccccc3)cc2)CC1 (stereo not shown) [Compound 5-99, N-hydroxy-2-(4-(1-methylpiperidin-4-yloxy)phenyl)-2-phenylacetamide]",< 1000
10,"CC(C)Nc1cccc(C(C(=O)NO)c2ccccc2)c1 (stereo not shown) [Compound 3-72, N-hydroxy-2-(3-(isopropylamino)phenyl)-2-phenylacetamide]",1000 to 15000
11,"CCSc1ccc(-c2ccc(C(C(=O)NO)c3ccccc3)cc2)cc1 (stereo not shown) [Compound 2-115, 2-(4′-(ethylthio)biphenyl-4-yl)-N-hydroxy-2-phenylacetamide]",< 1000
12,"COc1ncc(-c2ccc(C(C(=O)NO)c3ccccc3)cc2)cn1 (stereo not shown) [Compound 5-92, N-hydroxy-2-(4-(2-methoxypyrimidin-5-yl)phenyl)-2-phenylacetamide]",< 1000
13,"O=C(NO)C(c1ccccc1)c1ccc(-n2ccnc2)cc1 (stereo not shown) [Compound 5-88, 2-(4-(1H-imidazol-1-yl)phenyl)-N-hydroxy-2-phenylacetamide]",< 1000
14,"O=C(NO)C(c1ccccc1)c1ccc(OCc2ccccc2F)cc1 (stereo not shown) [Compound 3-60, 2-(4-(2-fluorobenzyloxy)phenyl)-N-hydroxy-2-phenylacetamide]",< 1000
15,"COCCOCCOc1ccc(C(C(=O)NO)c2ccccc2)cc1 (stereo not shown) [Compound 3-90, N-hydroxy-2-(4-(2-(2-methoxyethoxy)ethoxy)phenyl)-2-phenylacetamide]",< 1000
16,"CC(C)NC(=O)N1CCCN(C(C(=O)NO)c2ccccc2)CC1 (stereo not shown) [Compound 2-31, 4-(2-(hydroxyamino)-2-oxo-1-phenylethyl)-N-isopropyl-1,4-diazepane-1-carboxamide]",1000 to 15000
17,"O=C(NO)C(c1ccccc1)N1CCN(c2ncc(-c3ccccc3)cn2)CC1 (stereo not shown) [Compound 5-11, N-hydroxy-2-phenyl-2-(4-(5-phenylpyrimidin-2-yl)piperazin-1-yl)acetamide]",< 1000
18,CCN(CC)c1ccc(C(C(=O)NO)c2cccc(F)c2)cc1 (stereo not shown) [Compound 6-37],< 1000
19,"O=C(NO)C(c1ccc(Cl)cc1)c1ccc(Cl)cc1 [Compound 1-15, 2,2-bis(4-chlorophenyl)-N-hydroxyacetamide]",< 1000
20,"O=C(NO)C(c1ccccc1)c1ccc(OCCN2CCOCC2)cc1 (stereo not shown) [Compound 5-40, N-hydroxy-2-(4-(2-morpholinoethoxy)phenyl)-2-phenylacetamide]",< 1000
21,"O=C(NO)C(c1ccccc1)n1cc(-c2ccccc2)nn1 (stereo not shown) [Compound 1-26, N-hydroxy-2-phenyl-2-(4-phenyl-1H-1,2,3-triazol-1-yl)acetamide]",< 1000
22,"O=C(NO)C(Oc1ccc2c(c1)CCC2)c1ccccc1 (stereo not shown) [Compound 2-16, 2-(2,3-dihydro-1H-inden-5-yloxy)-N-hydroxy-2-phenylacetamide]",1000 to 15000
23,"O=C(NO)C(Sc1nc2ccccc2s1)c1ccccc1 (stereo not shown) [Compound 1-24, 2-(benzo[d]thiazol-2-ylthio)-N-hydroxy-2-phenylacetamide]",< 1000
24,"CCOc1ccc(C(C(=O)NO)c2ccccc2)cc1 (stereo not shown) [Compound 3-44, 2-(4-ethoxyphenyl)-N-hydroxy-2-phenylacetamide]",< 1000
25,"O=C(NO)C(c1ccccc1)N1CCC(c2c[nH]c3ccccc23)CC1 (stereo not shown) [Compound 1-34, 2-(4-(1H-indol-3-yl)piperidin-1-yl)-N-hydroxy-2-phenylacetamide]",< 1000
26,"O=C(NO)C(c1ccccc1)c1cccc(NCc2ccc(F)cc2)c1 (stereo not shown) [Compound 2-50, 2-(3-(4-fluorobenzylamino)phenyl)-N-hydroxy-2-phenylacetamide]",< 1000
